# Assay results reported in patent publication US12559784B2 (priority 2023, dated 2026).
# Several values for one entry are separate records, joined by “and”; a condition that tells them apart may be missing. Equal entries are not always repeated. Where two headings read alike, the source gives them in different places.
# Legend:
# [1] = test system: alkaline phosphatase; assay type: biochemical; conditions: PBS; 18 hours room temperature, PNPP 1 hour
# From the text: Our next study compared different dilutions of the original alkaline phosphatase source (1:10 [Activity: 1,000 units] and 1:100 [100 units]) and two sources of alkaline phosphatase, both purchased from Sigma Aldrich (St. Louis, MO). […] The five conditions for this study included original alkaline phosphatase (1:1), original alkaline phosphatase (1:10), original alkaline phosphatase (1:100), new alkaline phosphatase (1:1), and the blanks (phosphate buffered saline (PBS)). […] The two controls contained ink to determine if there would be any background effect.
# Preparation • 1. Alkaline phosphatase reaction reagent • a. Original AP • i. Add 1 mL PBS into AP vial, pipette re-pipette 10 times, then invert with cap on, to mix well. Take this 1 mL and add to 50 mL conical tube filled with 40 mL PBS. Invert to mix 10 times, vortex mix, let sit 2 minutes, invert to mix again 10 times • ii. Prepare 2 more 50 mL conical tubes • 1. 1:10 • a. […] 1:100 • a. Take 4 mL of solution made above, add to 36 mL PBS. […] New AP • i. Add 400 mg into a 50 mL conical tube filled with 40 mL PBS. Invert to mix 10 times, vortex mix, let sit 2 minutes, invert to mix 10 more times. Check to make sure all suspended. If not, vortex mix and invert until fully suspended. • 2. Prepare 24-well plates • 3. […] Aliquot with 200 μL PNPP Conditions • 1. Old AP • 2. Old AP (1:10) • 3. Old AP (1:100) • 4. New AP • 5. Blank (PBS only) Procedure • 1. 24-well plates • a. Add 1 mL (using P1000, blue tips) of the prepared PBS-AP to the plate (for each condition) • b. Add 100 μL of the test material to the well, mix with the same pipette tip, dispose and repeat for the rest of the test materials • c. Wrap the plate in saran wrap and place into the container • d. […] To the prepared 96-well plate with 200 μL PNPP or PBS, add 20 μL from the 24-well plate • 3. Incubate for 1 hour • 4.
# [2] = test system: alkaline phosphatase; assay type: biochemical
# Description: New stocks were made the of the 1:100 alkaline phosphatase reaction reagents.
# The conditions included: 1:100 dilution of alkaline phosphatase reaction reagent with two solvents (buffered saline and ethanol), dosing in 0.5 mL microcentrifuge tubes with 20 μL of chemical added to 180 μL of reaction reagent, and incubating with p-Nitrophenyl phosphate disodium salt (PNPP) substrate for 1-hour.
# [3] = test system: alkaline phosphatase; conditions: 30 μL chemical in 300 μL reagent 1:100, 4 hours room temperature, 3 mL PNPP 1 hour
# Description: We changed the test chemical dosage to 30 μL and the alkaline phosphatase reaction reagent to 300 μL, but kept the incubation to 4 hours at room temperature.
# PBS: Take 4 mL of AP (1:10) stock solution, add to 36 mL PBS. Vortex mix and then invert to mix 10 times • ii. […] Vortex mix and then invert to mix 10 times • b. PBS (lx) • c. […] Prepare 4 mL glass vials for dosing • a. Four sets • i. R1+ (PBS-AP) • ii. R1− (PBS) • iii. […] Prepare 96-well plates for PNPP reading (3 wells for each test chemical) Procedure • 1. Aliquot 300 μL of each reaction reagent to 4 mL glass vials. • 2. Add 30 μL of the test sample to each 4 mL glass vial. • 3. Incubate at room temperature for 4 hours. • 4. Aliquot 3 mL of PNPP to each 4 mL glass vial, let sit for 1 hr. • a. Aliquot 750 μL into the 4 mL glass vial to stop the reaction. • 5.
# [4] = test system: skin; conditions: cited from earlier work
# [5] = cited from earlier work
# [6] = test system: alkaline phosphatase; test: Alkaline phosphatase experiment, seventh week: 1:100 vs 1:1000 dilution, room temperature vs 37° C.; conditions: for OD405 reading, 1:1000 ethanol solvent condition (FIG. 9B): 4-hour exposure, 1-hour PNPP
# Description: Preparation • 1. Alkaline phosphatase reaction reagent • a. 1:100 • i. PBS: Take 400 μL of AP (1:10) stock solution, add to 3.6 mL PBS. Vortex mix and then invert to mix 10 times • ii. […] Vortex mix and then invert to mix 10 times • b. 1:1000 • i. PBS: Take 400 μL of AP (1:100) stock solution, add to 3.6 mL PBS. Vortex mix and then invert to mix 10 times • ii. […] Vortex mix and then invert to mix 10 times • 2. Prepare 0.5 mL microcentrifuge tubes for dosing • a. One set for room temperature, one set for 37° C. • 3. Prepare 96-well plates for PNPP reading (3 wells for each test chemical) • a. Aliquot with 200 μL PNPP Conditions • 1. 1:100 in PBS at RT • 2. […] 1:100 in PBS at 37° C. • 4. […] 1:1000 in PBS at RT • 6. […] 1:1000 in PBS at 37° C. • 8. […] Procedure • 1. In each microcentrifuge tube for each condition, add 180 μL of the corresponding AP reaction reagent • 2. Add 20 μL of the test chemical to each microcentrifuge tube • 3. Incubate for 4 hours (one set at room temperature; one set at 37° C.) • 4. To prepared 96-well plates with 200 μL PNPP aliquoted, add 20 μL of each microcentrifuge tube to the corresponding well • 5.
# [7] = test system: porcine skin; conditions: R 1 and 2
# Description: Our initial studies involved using fresh and frozen porcine skin “buttons”. These buttons were punched out of porcine skin (Spear Products, Cooopersburg, PA) using a […] biopsy punch tool. Three different kinds of skin buttons were prepared from fresh porcine skin, frozen porcine skin, and frozen porcine skin with the fatty layer removed. […] The next day, the tubes were taken out and vortexed and 500 μL of the solution was aliquoted into cuvettes to read at three different optical density wavelengths (OD190, OD290, OD300) to evaluate the best response.
# Skin Preparation • 1. Thaw 2 pieces of frozen porcine skin • 2. Punch out buttons: 24 buttons in each tube filled with 40 mL PB S-Azide 96-well plate Preparation • 1. Plate layout for dosing:
# Procedure • 1. Dose each tissue with 140 μL of test chemical • 2. […] Take out of incubator and vortex pulse 3× • 2. Aliquot 500 μL to cuvette and read results at OD190, OD290, and OD300
# There were three readings done at an optical density of 190, 290, and 300 nm to evaluate the best response. […] To address the variable exposure conditions, our next studies involved placing a larger porcine skin section into a holder that exposes only the epidermis side with no potential for test chemical exposure from the backside or through the sides.
# [8] = test system: phosphatase; assay type: biochemical, porcine
# Description: Our next studies involved applying the test substance (500 μL) directly to the epidermis side of previously frozen porcine skin (Spear Products, Coopersburg, PA) that is placed in a holder that only exposes the epidermis side for 30 minutes, adding phosphate buffered saline (PBS) with added sodium azide (metabolic inhibitor that ensure no viable tissue), then aliquoting into cuvettes to read at an optical density of 300 nm. […] So, at the end of the initial studies described above, almost out of frustration, we tried to probe for released phosphatase activity using p-Nitrophenyl phosphate disodium salt (PNPP; Sigma Aldrich, St. Louis, MO) substrate solution to detect any presence of phosphatase.
# Preparation • 1. Thaw 2 pieces of frozen porcine skin • a. Punch out as many skin discs and mount in holders • 2. Label cuvettes (3 for each chemical) Procedure • 1. Add 500 μL of test chemical to holder; incubate at room temperate for 30 minutes • 2. After 30 minutes, add 2 mL of PBS-Azide to both the holder containing the test chemical; forcefully pipette and re-pipette 10 times • 3. From the holder, aliquot 400 μL into 3 cuvettes; forcefully pipette and re-pipette 3 times before dispensing into cuvettes Reading Results • 1. Measure at OD300 for all cuvettes
# Skin corrosion by GHS Category 1 dermal corrosive chemicals results in the disintegration of the epidermis into the dermis.
# [9] = test system: alkaline phosphatase; test: Alkaline phosphatase experiment, ninth week: microcentrifuge tubes vs glass vials; assay type: biochemical; conditions: ethanol alkaline phosphatase 1:100, 4 hours room temperature, 1-hour PNPP
# Description: Feb. […] The test chemicals included water, acetic acid, heptanal, dimethylisopropylamine, n-Heptylamine, and N,N-Dimethylbenzylamine. We believe that when tilting the glass vial to mix by pipette/re-pipette, the alkaline phosphatase is sticking to the sides and therefore when the p-Nitrophenyl phosphate disodium salt (PNPP) is added, it immediately detects alkaline phosphatase presence and turns intensely yellow. In addition, by sticking to the side of the vial, since the volume of the test chemical added is low, the chance the test chemical interacting with the alkaline phosphatase might be less, therefore resulting in an intensely yellow enzyme reaction product. This study focused on the two stocks (one from previous experiment and a freshly made one) 1:100 concentration ethanol alkaline phosphatase reaction reagent. […] For the 4 mL vials, 30 μL of the test chemical is added to 300 μL of the alkaline phosphatase reaction reagent and incubated for 4 hours at room temperature.
# [10] = test system: alkaline phosphatase; assay type: biochemical; conditions: 3-hour exposure
# [11] = frozen porcine skin with fat layer removed
# [12] = skin, chemical lists of the experiments
SMILES,"OD405 readings, original alkaline phosphatase 1:100 (FIG. 6D) [1]",A2 - Results AVG [2],A2 - Results R1 [2],A2 - Results R3 [2],"OD405 readings, buffered saline alkaline phosphatase reaction reagent, glass vials (FIG. 11B) [3]","OD405 readings, ethanol alkaline phosphatase reaction reagent, glass vials (FIG. 11D) [3]","in vivo GHS ([4]; rabbit, in vivo)",solubility with water [5],"OD405 reading, 1:1000 ethanol solvent condition (FIG. 9B) [6]","in vivo GHS [4, 12]",also measured
"CN(C)Cc1ccccc1 [N,N-Dimethylbenzylamine]",3.431 and 3.502 and 3.61,0.570,0.588,0.539,3.360 and 3.238 and 3.273,3.429 and 3.249 and 3.164,Cat. 1C,mostly insoluble with water,0.587,,
CCCCCCC=O [Heptanal],,2.408,2.730,2.098,,,Cat. 2,,,,"OD190 ([7]; fresh porcine skin, 140 μL test chemical, >3A = outside readable range): 0.486 and 0.365; OD290 ([7]; fresh porcine skin): 0.170 and 0.165; OD300 ([7]; fresh porcine skin): 0.123; OD190 [7, 11]: 0.144 and 0.149; OD290 [7, 11]: 0.111 and 0.140; OD300 [7, 11]: 0.040 and 0.050; OD190 ([7]; frozen porcine skin): 0.362 and 0.371; OD290 ([7]; frozen porcine skin): 0.245 and 0.241; OD300 ([7]; frozen porcine skin): 0.154 and 0.137; percent of phosphatase measured (optical density compared to the naïve condition), average ([8]; average of two readings): 97.2%; percent of phosphatase measured (optical density compared to the naïve condition) ([8]; single readings): 100.0% and 94.4%; OD405 readings, glass vials (FIG. 12B) [9]: 0.804 and 0.852 and 0.901; OD405 readings, microcentrifuge tubes (FIG. 12B) [9]: 2.360 and 2.539 and 2.690; Corrosive ([4]; rabbit, in vivo): No"
CC(C)N(C)C [Dimethylisopropylamine],3.466 and 3.502,0.244,0.226,0.295,3.354 and 3.466 and 3.502,2.926 and 2.922 and 2.852,,mostly insoluble with water,,Cat. 1B/1C,
CCCCCCCN [n-Heptylamine],3.244 and 3.057 and 3.152,0.175,0.170,0.193,,,,mostly insoluble with water,,Cat. 1B/1C,
CSc1ccc(C=O)cc1,,3.333,3.379,3.266,,,,,,,"OD405 reading, 1:100 ethanol solvent condition, 37° C. ([6]; 37° C.): 0.857; OD405 reading, 1:100 ethanol solvent condition, room temperature ([6]; room temperature): 2.243"
ClCCCCBr [1-Bromo-4-chlorobutane],,2.849,2.948,2.869,,,,,0.799,,"OD405 reading, ethanol solvent, 10 μL dose, 30-minute PNPP (FIG. 7A) ([10]; 10 μL into 90 μL): 3.349; OD405 reading, ethanol solvent, 50 μL dose, 30-minute PNPP (FIG. 7A) ([10]; 50 μL into 50 μL): 0.700"
